Patent US20260297081A1, “COMPOUNDS AND METHODS OF TREATING CANCERS” (Cullgen Inc., priority 2023, published 2026)

What follows are compounds tested on MCF7 cells (assay: Anti-proliferation (viability) of MCF7 cells (Table 7, FIG. 2B)). Conditions: Homo sapiens, MCF7, MCF7 cells, 3-6 days, 10-point serial dilution; read-out: GI IC50 in MCF-7.
Format: cell-based

Compound	IC50
CC(=O)c1c(C)c2cnc(Nc3ccc(N4CCN(CC(=O)NCCCCCNc5nc6[nH]ccc6cc5C(=O)Nc5ccc(N(C)C)nn5)CC4)cn3)nc2n(C2CCCC2)c1=O [CPD-251, 6-((5-(2-(4-(6-((6-acetyl-8-cyclopentyl-5-methyl-7-oxo-7,8-dihydropyrido[2,3-d]pyrimidin-2-yl)amino)pyridin-3-yl)piperazin-1-yl)acetamido)pentyl)amino)-N-(6-(dimethylamino)pyridazin-3-yl)-1H-pyrrolo[2,3-b]pyridine-5-carboxamide]	> 0.1 µM
CC(=O)c1c(C)c2cnc(Nc3ccc(N4CCN(CC(=O)NC5CC6(C5)CC(Nc5cc(F)ccc5C(=O)Nc5cc(C)on5)C6)CC4)cn3)nc2n(C2CCCC2)c1=O (stereo not drawn) [CPD-260, 2-((6-(2-(4-(6-((6-acetyl-8-cyclopentyl-5-methyl-7-oxo-7,8-dihydropyrido[2,3-d]pyrimidin-2-yl)amino)pyridin-3-yl)piperazin-1-yl)acetamido)spiro[3.3]heptan-2-yl)amino)-4-fluoro-N-(5-methylisoxazol-3-yl)benzamide]	> 0.1 µM
CC(=O)c1c(C)c2cnc(Nc3ccc(N4CCN(CC(=O)NCC5CC(Nc6cc(C(F)(F)F)ccc6C(=O)Nc6cc(C)n(C)n6)C5)CC4)cn3)nc2n(C2CCCC2)c1=O (stereo not drawn) [CPD-261, 2-((3-((2-(4-(6-((6-acetyl-8-cyclopentyl-5-methyl-7-oxo-7,8-dihydropyrido[2,3-d]pyrimidin-2-yl)amino)pyridin-3-yl)piperazin-1-yl)acetamido)methyl)cyclobutyl)amino)-N-(1,5-dimethyl-1H-pyrazol-3-yl)-4-(trifluoromethyl)benzamide]	> 0.1 µM
CC(=O)c1c(C)c2cnc(Nc3ccc(N4CCN(CC(=O)NCC5CC(Nc6ccc(C(F)(F)F)cc6C(=O)Nc6cc(C)n(C)n6)C5)CC4)cn3)nc2n(C2CCCC2)c1=O (stereo not drawn) [CPD-262, 2-((3-((2-(4-(6-((6-acetyl-8-cyclopentyl-5-methyl-7-oxo-7,8-dihydropyrido[2,3-d]pyrimidin-2-yl)amino)pyridin-3-yl)piperazin-1-yl)acetamido)methyl)cyclobutyl)amino)-N-(1,5-dimethyl-1H-pyrazol-3-yl)-5-(trifluoromethyl)benzamide]	> 0.1 µM
CC(=O)c1c(C)c2cnc(Nc3ccc(N4CCN(CC(=O)NCC5CC(Nc6ccc(F)cc6C(=O)Nc6cc(C)n(C)n6)C5)CC4)cn3)nc2n(C2CCCC2)c1=O (stereo not drawn) [CPD-263, 2-((3-((2-(4-(6-((6-acetyl-8-cyclopentyl-5-methyl-7-oxo-7,8-dihydropyrido[2,3-d]pyrimidin-2-yl)amino)pyridin-3-yl)piperazin-1-yl)acetamido)methyl)cyclobutyl)amino)-N-(1,5-dimethyl-1H-pyrazol-3-yl)-5-fluorobenzamide]	> 0.1 µM
CC(=O)c1c(C)c2cnc(Nc3ccc(N4CCN(CC(=O)NCC5CC(Nc6cc(F)ccc6C(=O)Nc6cc(C)n(C)n6)C5)CC4)cn3)nc2n(C2CCCC2)c1=O (stereo not drawn) [CPD-264, 2-((3-((2-(4-(6-((6-acetyl-8-cyclopentyl-5-methyl-7-oxo-7,8-dihydropyrido[2,3-d]pyrimidin-2-yl)amino)pyridin-3-yl)piperazin-1-yl)acetamido)methyl)cyclobutyl)amino)-N-(1,5-dimethyl-1H-pyrazol-3-yl)-4-fluorobenzamide]	> 0.1 µM
CNc1ccc(C(=O)Nc2ccc(N(C)C)nn2)c(NC2CC3(C2)CN(C(=O)CCN2CCN(c4ccc(Nc5ncc6c(C)c(C(C)=O)c(=O)n(C7CCCC7)c6n5)nc4)CC2(C)C)C3)n1 [CPD-267, 2-((2-(3-(4-(6-((6-acetyl-8-cyclopentyl-5-methyl-7-oxo-7,8-dihydropyrido[2,3-d]pyrimidin-2-yl)amino)pyridin-3-yl)-2,2-dimethylpiperazin-1-yl)propanoyl)-2-azaspiro[3.3]heptan-6-yl)amino)-N-(6-(dimethylamino)pyridazin-3-yl)-6-(methylamino)nicotinamide]	< 0.05 µM
CNc1ccc(C(=O)Nc2ccc(N(C)C)nn2)c(NC2CC3(C2)CN(C(=O)CN2CCN(Cc4ccc(Nc5ncc6c(C)c(C(C)=O)c(=O)n(C7CCCC7)c6n5)nc4)CC2)C3)n1 [CPD-268, 2-((2-(2-(4-((6-((6-acetyl-8-cyclopentyl-5-methyl-7-oxo-7,8-dihydropyrido[2,3-d]pyrimidin-2-yl)amino)pyridin-3-yl)methyl)piperazin-1-yl)acetyl)-2-azaspiro[3.3]heptan-6-yl)amino)-N-(6-(dimethylamino)pyridazin-3-yl)-6-(methylamino)nicotinamide]	< 0.05 µM
CNc1ccc(C(=O)Nc2ccc(N(C)C)nn2)c(NC2CN(C(=O)CN3CCN(Cc4ccc(Nc5ncc6c(C)c(C(C)=O)c(=O)n(C7CCCC7)c6n5)nc4)CC3)C2)n1 [CPD-269, 2-((1-(2-(4-((6-((6-acetyl-8-cyclopentyl-5-methyl-7-oxo-7,8-dihydropyrido[2,3-d]pyrimidin-2-yl)amino)pyridin-3-yl)methyl)piperazin-1-yl)acetyl)azetidin-3-yl)amino)-N-(6-(dimethylamino)pyridazin-3-yl)-6-(methylamino)nicotinamide]	> 0.1 µM
CC(=O)c1c(C)c2cnc(Nc3ccc(N4CCN(CC(=O)N5CCC(Nc6nc(NC(C)C)ccc6C(=O)Nc6cc(C)on6)CC5)CC4)cn3)nc2n(C2CCCC2)c1=O [CPD-290, 2-((1-(2-(4-(6-((6-acetyl-8-cyclopentyl-5-methyl-7-oxo-7,8-dihydropyrido[2,3-d]pyrimidin-2-yl)amino)pyridin-3-yl)piperazin-1-yl)acetyl)piperidin-4-yl)amino)-6-(isopropylamino)-N-(5-methylisoxazol-3-yl)nicotinamide]	> 0.1 µM
CC(=O)c1c(C)c2cnc(Nc3ccc(N4CCN(CC(=O)NC5CC6(C5)CC(Nc5nc(N(C)C)ccc5C(=O)Nc5cn(C)c(C7CC7)n5)C6)CC4)cn3)nc2n(C2CCCC2)c1=O (stereo not drawn) [CPD-291, 2-((6-(2-(4-(6-((6-acetyl-8-cyclopentyl-5-methyl-7-oxo-7,8-dihydropyrido[2,3-d]pyrimidin-2-yl)amino)pyridin-3-yl)piperazin-1-yl)acetamido)spiro[3.3]heptan-2-yl)amino)-N-(2-cyclopropyl-1-methyl-1H-imidazol-4-yl)-6-(dimethylamino)nicotinamide]	> 0.1 µM
CC(=O)c1c(C)c2cnc(Nc3ccc(N4CCN(CC(=O)NC5CC6(C5)CC(Nc5nc(OC(C)C)ccc5C(=O)Nc5cn(C)c(C7CC7)n5)C6)CC4)cn3)nc2n(C2CCCC2)c1=O (stereo not drawn) [CPD-292, 2-((6-(2-(4-(6-((6-acetyl-8-cyclopentyl-5-methyl-7-oxo-7,8-dihydropyrido[2,3-d]pyrimidin-2-yl)amino)pyridin-3-yl)piperazin-1-yl)acetamido)spiro[3.3]heptan-2-yl)amino)-N-(2-cyclopropyl-1-methyl-1H-imidazol-4-yl)-6-isopropoxynicotinamide]	> 0.1 µM
CCNc1ccc(C(=O)Nc2cn(C)c(C3CC3)n2)c(NC2CC3(CC(NC(=O)CN4CCN(c5ccc(Nc6ncc7c(C)c(C(C)=O)c(=O)n(C8CCCC8)c7n6)nc5)CC4)C3)C2)n1 (stereo not drawn) [CPD-293, 2-((6-(2-(4-(6-((6-acetyl-8-cyclopentyl-5-methyl-7-oxo-7,8-dihydropyrido[2,3-d]pyrimidin-2-yl)amino)pyridin-3-yl)piperazin-1-yl)acetamido)spiro[3.3]heptan-2-yl)amino)-N-(2-cyclopropyl-1-methyl-1H-imidazol-4-yl)-6-(ethylamino)nicotinamide]	> 0.1 µM
[2H]C([2H])([2H])Nc1ccc(C(=O)Nc2cc(C)on2)c(NC2CCC(NC(=O)CN3CCN(c4ccc(Nc5ncc6c(C)c(C(C)=O)c(=O)n(C7CCCC7)c6n5)nc4)CC3)C2)n1 (stereo not drawn) [CPD-294, 2-((3-(2-(4-(6-((6-acetyl-8-cyclopentyl-5-methyl-7-oxo-7,8-dihydropyrido[2,3-d]pyrimidin-2-yl)amino)pyridin-3-yl)piperazin-1-yl)acetamido)cyclopentyl)amino)-6-((methyl-d3)amino)-N-(5-methylisoxazol-3-yl)nicotinamide]	> 0.1 µM
CC(=O)c1c(C)c2cnc(Nc3ccc(N4CCN(CC(=O)NC5CCC(Nc6nc(NC(C)C)ccc6C(=O)Nc6cc(C)on6)C5)CC4)cn3)nc2n(C2CCCC2)c1=O (stereo not drawn) [CPD-295, 2-((3-(2-(4-(6-((6-acetyl-8-cyclopentyl-5-methyl-7-oxo-7,8-dihydropyrido[2,3-d]pyrimidin-2-yl)amino)pyridin-3-yl)piperazin-1-yl)acetamido)cyclopentyl)amino)-6-(isopropylamino)-N-(5-methylisoxazol-3-yl)nicotinamide]	> 0.1 µM
CNc1ccc(C(=O)Nc2cn(C)c(C3CCCC3)n2)c(NC2CC3(CC(NC(=O)CN4CCN(c5ccc(Nc6ncc7c(C)c(C(C)=O)c(=O)n(C8CCCC8)c7n6)nc5)CC4)C3)C2)n1 (stereo not drawn) [CPD-296, 2-((6-(2-(4-(6-((6-acetyl-8-cyclopentyl-5-methyl-7-oxo-7,8-dihydropyrido[2,3-d]pyrimidin-2-yl)amino)pyridin-3-yl)piperazin-1-yl)acetamido)spiro[3.3]heptan-2-yl)amino)-N-(2-cyclopentyl-1-methyl-1H-imidazol-4-yl)-6-(methylamino)nicotinamide]	> 0.1 µM
CNc1ccc(C(=O)Nc2cc(C)n(C3CCC3)n2)c(NC2CC3(CC(NC(=O)CN4CCN(c5ccc(Nc6ncc7c(C)c(C(C)=O)c(=O)n(C8CCCC8)c7n6)nc5)CC4)C3)C2)n1 (stereo not drawn) [CPD-297, 2-((6-(2-(4-(6-((6-acetyl-8-cyclopentyl-5-methyl-7-oxo-7,8-dihydropyrido[2,3-d]pyrimidin-2-yl)amino)pyridin-3-yl)piperazin-1-yl)acetamido)spiro[3.3]heptan-2-yl)amino)-N-(1-cyclobutyl-5-methyl-1H-pyrazol-3-yl)-6-(methylamino)nicotinamide]	> 0.1 µM
CCCNc1ccc(C(=O)Nc2cn(C)c(C3CC3)n2)c(NC2CC3(CC(NC(=O)CN4CCN(c5ccc(Nc6ncc7c(C)c(C(C)=O)c(=O)n(C8CCCC8)c7n6)nc5)CC4)C3)C2)n1 (stereo not drawn) [CPD-298, 2-((6-(2-(4-(6-((6-acetyl-8-cyclopentyl-5-methyl-7-oxo-7,8-dihydropyrido[2,3-d]pyrimidin-2-yl)amino)pyridin-3-yl)piperazin-1-yl)acetamido)spiro[3.3]heptan-2-yl)amino)-N-(2-cyclopropyl-1-methyl-1H-imidazol-4-yl)-6-(propylamino)nicotinamide]	> 0.1 µM
